# Assay results from US7056917B2, “Drug efflux pump inhibitor” (Daiichi Pharmaceutical Co., Ltd., priority 2001, dated 2006).
# System: Pseudomonas aeruginosa PAM 1723 (a strain highly expressing MexAB-OprM drug efflux pump)
# Assay: Combined use of drug efflux pump inhibitor and disinfectant, broth dilution method
# Format: cell-based
# Method: Effect of Combined Use of Drug Efflux Pump Inhibitor and Disinfectant
# Effects of a combined use of a drug efflux pump inhibitor and alkyldiaminoethylglycine hydrochloride (AEG, trade name: Tego 51) or chlorhexidine gluconate (CHG, trade name: Hibiten) on Pseudomonas aeruginosa PAM 1723 (a strain highly expressing MexAB-OprM drug efflux pump) was determined by the broth dilution method. The compound of Example 26 was added at a final concentration of 10 μg/ml to Mueller-Hinton broth (MHB) containing a disinfectant at a concentration after 2-fold serial dilution. The amount of the test bacteria inoculated was 1×10^6 CFU/ml, and after standing cultivation at 37° C. for 18 hours, the culture was observed by visual inspection. The minimum concentration that gave no turbidity as in the control of MHB was determined as MIC.
substance,measurement,setting,value
alkyldiaminoethylglycine hydrochloride [AEG],enhancement of activity of the disinfectant on PAM 1723,combined use with 10 μg/ml of the compound of Example 26,two times
same,MIC AEG Combined use,"combined with compound of Example 26 at 10 μg/ml, PAM 1723, 37° C. 18 hours",32 µg/mL
same,AEG Ratio of MIC values for single use of the disinfectant and combined use with the compound of Example 26,"compound of Example 26 at 10 μg/ml, PAM 1723",2
same,MIC AEG Single use,"disinfectant alone, PAM 1723, 37° C. 18 hours",64 µg/mL
